Measurements from paper PMC8101618, “Comparable Initial Engagement of Intracellular Signaling Pathways by Parathyroid Hormone Receptor Ligands Teriparatide, Abaloparatide, and Long‐Acting PTH” (JBMR Plus, 2021).
Where no end group is shown, it is not given here. TMR = tetramethyl-rhodamine

How the values were obtained:
ratPTH1R = experiment: internalization of TMR-labeled ligand-PTH1R complexes in GR-35 cells; type: cell-based, rat; conditions: TMR-labeled ligands (TMR at Lys13), 15 min, 21°C, HEK293 ratPTH1R/glosensor GR-35 cells, epifluorescent microscopy; 100nM (methods) or 10nM (results); repeated two times
Protocol: Internalization of ligand‐PTH1R complexes was assessed by fluorescent microscopy in stably transfected HEK293/ratPTH1R/glosensor (GR‐35) cells. The cells were cultured on glass coverslips in 24‐well plates to ~75% of confluency, and then treated with a tetramethylrhodamine (TMR)‐labeled PTH analog (100nM, TMR attached to Lys13) in HBSS containing 0.1% BSA (HB buffer) for 15 min at 21°C. The cells were then rinsed thrice with HB buffer, fixed with 4% formalin for 5 min, mounted with vector‐shield containing 4,6‐diamidino‐2‐phenylindole (DAPI) on a glass microscope slide, and viewed and digitally imaged using a Nikon epifluorescent microscope (Nikon, Tokyo, Japan) equipped with a charge‐coupled device (CCD) camera configured with SPOT imaging software (SPOT Imaging, Sterling Heights, MI, USA).
Next, we asked whether PTH analogs might have different effects on PTH1R activation‐dependent internalization. For this, HEK293 cells stably expressing a rat PTH1R cDNA (GR‐35 cells) were treated with tetramethyl‐rhodamine‐labeled versions of hPTH (1‐34), PTHrP, and abaloparatide (the TMR fluorophore is attached at the K13 position of each peptide). Cells were treated for 15 min at room temperature (21°C) at peptide doses of 10nM. After excess unbound peptide was washed away, cells were examined by epifluorescent microscopy.

[1] = test system: Gαq/phospholipase signaling; conditions: cited from earlier work
Protocol: (§1) First, we assessed the ability of distinct PTH1R peptide ligands (Fig. 1A ) to induce Gαq/PKC‐dependent increases in intracellular calcium in HEK293 cells stably expressing hPTH1R (GP‐2.3 cells). For this, cells were preloaded with the calcium indicator dye Fura2‐AM, and then treated with different PTH ligands at a concentration of 100nM. Intracellular calcium fluxes were measured by ratiometric fluorescence (excitation = 340 nm and 380 nm, emission = […]) over time.

hPTH1R = experiment: intracellular calcium (Fura2-AM) in HEK293/hPTH1R/glosensor (GP-2.3) cells; type: cell-based, human; conditions: 100nM; HEK293 cells stably expressing hPTH1R (GP-2.3); Fura2-AM ratiometric fluorescence 340/380 nm; 150 s after ligand addition; repeated two times
Protocol: Signaling via the iCa^++ pathway was assessed in stably transfected HEK‐HEK293/hPTH1R/glosensor (GP‐2.3) cells using the calcium‐sensitive fluorophore Fura2‐AM (Invitrogen, Life Tech. Grand Island, NY, USA).^( ^32 ^) Confluent cells in a black, 96‐well plate were preloaded with Fura2‐AM (5μM) for 45 min and then unloaded in buffer for 30 min. The plate was then processed using a Perkin Elmer Envision plate reader (Perkin Elmer, Waltham, MA, USA) to monitor fluorescence emission at a wavelength (λem) of 515 nm, upon sequential excitation at wavelengths (λex) of 340 nm and 380 nm. Data were recorded at 2‐s intervals for 10 s prior to, and for 150 s after ligand addition. The data at each time point were calculated as the ratio of the fluorescence signal obtained with excitation at 340 nm to that obtained with excitation at 380 nm.
as §1

[2] = biological target: T1, PTH1R (endogenous, Ocy454 cells) (Mus musculus, UniProt P41593); experiment: intracellular cAMP in Ocy454 cells; type: cell-based, murine; conditions: IBMX (2mM), 30 min, room temperature, radioimmunoassay, repeated three times, Fig 3A, read-out: cAMP generation EC50
T1 construct: effects of distinct PTH1R ligands on endogenous receptors in Ocy454 cells; endogenous in cells; host or cells: Ocy454 cells (murine osteocyte-like line, subclone 6-9)
T1 sequence (P41593 27-591): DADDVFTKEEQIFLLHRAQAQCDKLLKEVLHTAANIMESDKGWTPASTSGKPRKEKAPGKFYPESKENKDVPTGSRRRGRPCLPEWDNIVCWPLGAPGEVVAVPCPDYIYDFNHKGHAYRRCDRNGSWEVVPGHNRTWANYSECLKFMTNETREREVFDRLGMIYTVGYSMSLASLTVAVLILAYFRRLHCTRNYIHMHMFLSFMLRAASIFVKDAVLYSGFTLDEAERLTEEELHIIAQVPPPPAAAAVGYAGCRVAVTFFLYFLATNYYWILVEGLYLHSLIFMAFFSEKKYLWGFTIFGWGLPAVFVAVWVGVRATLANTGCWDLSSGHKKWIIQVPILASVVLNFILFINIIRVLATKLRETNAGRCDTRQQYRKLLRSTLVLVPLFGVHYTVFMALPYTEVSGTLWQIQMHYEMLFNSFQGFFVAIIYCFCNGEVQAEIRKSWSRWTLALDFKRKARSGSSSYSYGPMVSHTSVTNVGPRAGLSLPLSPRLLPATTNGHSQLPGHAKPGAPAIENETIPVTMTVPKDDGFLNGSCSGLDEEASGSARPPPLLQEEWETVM
Protocol: Confluent Ocy454 cells in 96‐well plates were treated with a abaloparatide or a PTH analog at varying concentrations in a buffer of Hanks balanced salts solution (HBSS) containing 0.1% BSA and 3‐isobutyl‐1‐methylxanthine (IBMX) (2mM) for 30 min at room temperature. The buffer was then removed and the cells were lysed by placing the plate on a bed of powdered dry ice and adding 50 μL of 50mM HCl. After freezing and thawing, the lysates were diluted in water and then assessed for cAMP content by radioimmunoassay.
First, we assessed the effects of different PTH analogs on cAMP generation. For this, cells were treated with different concentrations of peptides in the presence of IBMX for 30 min at room temperature, followed by radioimmunoassay for cAMP.

EC50 [2] [nM] | Compound | ligand-PTH1R internalization (ratPTH1R) | further results
– | ^TMRPTHc35 (1‐35): Tetramethyl‐rhodamine (TMR)‐labeled version of PTH, TMR attached to Lys13 (SVSEIQLMHNLGK(TMR)HLNSMERVEWLRKKLQDVHNFV; UniProt P01270 32-66, looked up, fragment) | induced ligand‐PTH1R internalization | –
– | Trp1‐PTH (1‐34): a PTH analog defective at activating Gαq/phospholipase signaling (WVSEIQLMHNLGKHLNSMERVEWLRKKLQDVHNF; Parathyroid hormone; UniProt P01270 32-65, looked up, variant S1W) | – | activation of Gαq/phospholipase signaling [1]: defective at activating Gαq/phospholipase signaling; intracellular calcium release (hPTH1R): does not stimulate intracellular calcium
– | ^TMRPTHrP (1‐36): Tetramethyl‐rhodamine (TMR)‐labeled version of PTHrP, TMR attached to Lys13 | induced ligand‐PTH1R internalization | –
0.562 | AVAEIQLMHQRAKWIQDARRRAFLHKLIAEIHTAEI [LA‐PTH] | – | –
0.589 | CC[C@H](C)[C@H](NC(=O)[C@H](CO)NC(=O)[C@H](CCCCN)NC(=O)CNC(=O)[C@H](CCCCN)NC(=O)[C@H](CC(=O)O)NC(=O)[C@H](Cc1cnc[nH]1)NC(=O)[C@H](CC(C)C)NC(=O)[C@H](CC(C)C)NC(=O)[C@H](CCC(N)=O)NC(=O)[C@H](Cc1cnc[nH]1)NC(=O)[C@H](CCC(=O)O)NC(=O)[C@H](CO)NC(=O)[C@@H](NC(=O)[C@H](C)N)C(C)C)C(=O)N[C@@H](CCC(N)=O)C(=O)N[C@@H](CC(=O)O)C(=O)N[C@@H](CC(C)C)C(=O)N[C@@H](CCCNC(=N)N)C(=O)N[C@@H](CCCNC(=N)N)C(=O)N[C@@H](CCCNC(=N)N)C(=O)N[C@@H](CCC(=O)O)C(=O)N[C@@H](CC(C)C)C(=O)N[C@@H](CC(C)C)C(=O)N[C@@H](CCC(=O)O)C(=O)N[C@@H](CCCCN)C(=O)N[C@@H](CC(C)C)C(=O)N[C@@H](CC(C)C)C(=O)NC(C)(C)C(=O)N[C@@H](CCCCN)C(=O)N[C@@H](CC(C)C)C(=O)N[C@@H](Cc1cnc[nH]1)C(=O)N[C@H](C(=O)N[C@@H](C)C(N)=O)[C@@H](C)O [abaloparatide] | – | –
